# From BindingDB's records for doi:10.1111/j.1432-1033.1976.tb10435.x (Gesellschaft Fur Molekularbiolische Forschung Mbh, 1976)
# Molecular target: Isoleucine--tRNA ligase (Escherichia coli (strain K12), UniProt P00956)
# Assay: Competitive Ligand Binding Assay
# Conditions: pH 7.5; 20 °C
# Source text: Utilizing an analytical ultracentrifuge, the binding constants of various amino acids and isoleucine analogues to IleRS were estimated from their competition with radioactively labeled L-isoleucine.
# Sequence of Isoleucine--tRNA ligase (P00956 whole entry): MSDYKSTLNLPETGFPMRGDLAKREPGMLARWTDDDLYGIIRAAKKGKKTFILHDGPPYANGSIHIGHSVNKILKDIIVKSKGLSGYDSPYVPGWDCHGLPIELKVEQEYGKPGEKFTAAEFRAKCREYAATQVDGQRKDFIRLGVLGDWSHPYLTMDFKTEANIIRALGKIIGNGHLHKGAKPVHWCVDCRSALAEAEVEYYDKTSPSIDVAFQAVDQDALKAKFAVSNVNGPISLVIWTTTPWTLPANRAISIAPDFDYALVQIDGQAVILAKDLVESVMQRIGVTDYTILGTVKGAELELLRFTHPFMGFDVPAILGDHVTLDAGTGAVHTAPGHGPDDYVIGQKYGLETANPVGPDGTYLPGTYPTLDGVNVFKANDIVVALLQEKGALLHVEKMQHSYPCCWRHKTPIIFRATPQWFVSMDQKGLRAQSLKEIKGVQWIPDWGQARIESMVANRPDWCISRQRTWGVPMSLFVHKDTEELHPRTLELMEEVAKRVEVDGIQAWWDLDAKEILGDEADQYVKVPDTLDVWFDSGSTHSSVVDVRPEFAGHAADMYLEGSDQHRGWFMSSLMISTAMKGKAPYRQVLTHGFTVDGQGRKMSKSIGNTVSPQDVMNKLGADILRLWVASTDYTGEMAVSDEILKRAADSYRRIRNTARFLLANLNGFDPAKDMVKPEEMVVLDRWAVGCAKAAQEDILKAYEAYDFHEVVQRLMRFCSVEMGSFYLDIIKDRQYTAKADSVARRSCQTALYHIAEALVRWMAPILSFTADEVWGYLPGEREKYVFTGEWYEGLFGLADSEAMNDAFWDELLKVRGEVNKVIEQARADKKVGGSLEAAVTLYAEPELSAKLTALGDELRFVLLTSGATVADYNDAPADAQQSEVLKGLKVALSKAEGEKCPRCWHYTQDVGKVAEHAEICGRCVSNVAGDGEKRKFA
row,SMILES,Ki
1,"CCC[C@H](C)[C@H](N)C(=O)O [(2S,3S)-2-amino-3-methylhexanoic acid]",0.05 mM
2,"CC[C@H](C)C[C@H](N)C(=O)O [(2S,4S)-2-amino-4-methylhexanoic acid]",2 mM
3,CC(C)[C@H](N)CO [(2S)-2-amino-3-methylbutan-1-ol],14.3 mM
4,CC(C)CC[C@H](N)C(=O)O [(2S)-2-amino-5-methylhexanoic acid],2.5 mM
5,CCC(CC)C(N)C(=O)O (stereo unspecified) [2-amino-3-ethylpentanoic acid],0.53 mM
6,"CC(C)(C)CC(N)C(=O)O (racemic) [2-amino-4,4-dimethylpentanoic acid]",12.5 mM
7,CCC(C)[C@H](N)CO (stereo partly drawn) [(2S)-2-amino-3-methylpentan-1-ol],8.33 mM
8,"CCC(C)(C)[C@H](N)C(=O)O (racemic) [2-amino-3,3-dimethylpentanoic acid]",1.25 mM
9,"CC(C)(C)C[C@H](N)C(=O)O [(2S)-2-amino-4,4-dimethylpentanoic acid]",12.5 mM
10,"CC(C)[C@@H](C)[C@H](N)C(=O)O [(2S,3R)-2-amino-3,4-dimethylpentanoic acid]",5 mM
11,CCC(CC)[C@H](N)C(=O)O [(2S)-2-amino-3-ethylpentanoic acid],0.56 mM
12,CCCCC[C@H](N)C(=O)O [(2S)-2-aminoheptanoic acid],16.7 mM
13,"CC(C)[C@H](C)[C@H](N)C(=O)O [(2S,3S)-2-amino-3,4-dimethylpentanoic acid]",0.0455 mM
14,CC(C)CCC(N)C(=O)O (racemic) [2-amino-5-methylhexanoic acid],3.33 mM

# Second part, the compound after the results:
row,Ki,SMILES
1,16.7 mM,CCCC[C@@H](C)C(N)C(=O)O (stereo partly drawn) [(3R)-2-amino-3-methylheptanoic acid]
2,3.33 mM,"CC(C)[C@@H](C)C(N)C(=O)O (stereo partly drawn) [(3R)-2-amino-3,4-dimethylpentanoic acid]"
3,0.0588 mM,CCC[C@H](C)C(N)C(=O)O (stereo partly drawn) [(3S)-2-amino-3-methylhexanoic acid]
4,1.67 mM,CCC[C@@H](C)C(N)C(=O)O (stereo partly drawn) [(3R)-2-amino-3-methylhexanoic acid]
5,2.5 mM,CCCC[C@H](C)C(N)C(=O)O (stereo partly drawn) [(3S)-2-amino-3-methylheptanoic acid]
6,5 mM,CCC[C@@H](CC)C(N)C(=O)O (mixture of isomers) [(3R)-2-amino-3-ethylhexanoic acid]
7,5 mM,CCC[C@H](CC)C(N)C(=O)O (stereo partly drawn) [(3S)-2-amino-3-ethylhexanoic acid]
